Experimental data: patent US20220396565A1 (Hoffmann-La Roche Inc., priority 2020, published 2022)
Where a name gives a salt, the structure may show the parent alone.

The compounds below were run on Acinetobacter baumannii ATCC17961 (assay: Antimicrobial susceptibility testing: 90% growth inhibitory concentration (IC90) determination, Iso-Sensitest broth). Conditions: Acinetobacter baumannii, ATCC17961, 90% growth inhibitory concentration, Acinetobacter baumannii ATCC17961, Iso-Sensitest broth; read-out: ATCC 17961 IC90.
Type: cell-based
Outline: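 Growth at OD600 was monitored every 20 min for 16 h at 35±2 °C, with bacteria inoculated at ~5×10^(5) CFU/ml into Iso-Sensitest medium. Compounds were tested as 10-point twofold dilutions (e.g. 10–0.02 μM final). The 90% inhibitory concentration comes from the log-phase growth.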

Compound	IC90 [µM]
COc1ccc(-c2cnc(C(=O)Nc3ccc(C(=O)N4CCN(C(=O)[C@@H]5CCNC5)CC4)c(Cl)c3)n2C)c(F)c1F [Example 138, N-[3-chloro-4-[4-[(3R)-pyrrolidine-3-carbonyl]piperazine-1-carbonyl]phenyl]-5-(2,3-difluoro-4-methoxy-phenyl)-1-methyl-imidazole-2-carboxamide formate]	0.03
COc1ccc(-c2cnc(C(=O)Nc3ccc(C(=O)N4CCN(C(=O)[C@H]5CCNC5)CC4)c(Cl)c3)n2C)c(F)c1F [Example 139, N-[3-chloro-4-[4-[(3S)-pyrrolidine-3-carbonyl]piperazine-1-carbonyl]phenyl]-5-(2,3-difluoro-4-methoxy-phenyl)-1-methyl-imidazole-2-carboxamide formate]	0.04
COc1ccc(-c2cnc(C(=O)Nc3ccc(C(=O)N4CCN(C(=O)[C@H]5C[C@@H](N)C5)CC4)c(Cl)c3)n2C)c(F)c1F [Example 140, N-[4-[4-(3-aminocyclobutanecarbonyl)piperazine-1-carbonyl]-3-chloro-phenyl]-5-(2,3-difluoro-4-methoxy-phenyl)-1-methyl-imidazole-2-carboxamide formate]	0.05
COc1ccc(-c2cnc(C(=O)Nc3ccc(C(=O)N4CCN(C(=O)C5(O)CCNC5)CC4)c(Cl)c3)n2C)c(F)c1F (stereo not shown) [Example 141, N-[3-chloro-4-[4-(3-hydroxypyrrolidine-3-carbonyl)piperazine-1-carbonyl]phenyl]-5-(2,3-difluoro-4-methoxy-phenyl)-1-methyl-imidazole-2-carboxamide formate]	0.06
COc1ccc(-c2cnc(C(=O)Nc3ccc(C(=O)N4CCN(C(=O)CC5CCNCC5)CC4)c(Cl)c3)n2C)c(F)c1F [Example 142, N-[3-chloro-4-[4-[2-(4-piperidyl)acetyl]piperazine-1-carbonyl]phenyl]-5-(2,3-difluoro-4-methoxy-phenyl)-1-methyl-imidazole-2-carboxamide; formic acid]	0.04
Cn1c(-c2ccc(OCF)c(F)c2F)cnc1C(=O)Nc1ccc(C(=O)N2CCN(C(=O)C3CCNCC3)CC2)c(Cl)c1 [Example 143, N-[3-chloro-4-[4-(piperidine-4-carbonyl)piperazine-1-carbonyl]phenyl]-5-[2,3-difluoro-4-(fluoromethoxy)phenyl]-1-methyl-imidazole-2-carboxamide formate]	0.03
Cn1c(-c2ccc(OC(F)F)c(F)c2)cnc1C(=O)Nc1ccc(C(=O)N2CCN(C(=O)C3CCNCC3)CC2)c(Cl)c1 [Example 144, N-[3-chloro-4-[4-(piperidine-4-carbonyl)piperazine-1-carbonyl]phenyl]-5-[4-(difluoromethoxy)-3-fluoro-phenyl]-1-methyl-imidazole-2-carboxamide formate]	0.06
COc1ccc(-c2cnc(C(=O)Nc3ccc(C(=O)N4CCN(C(=O)CC5CNC5)CC4)c(Cl)c3)n2C)c(F)c1F [Example 145, N-[4-[4-[2-(azetidin-3-yl)acetyl]piperazine-1-carbonyl]-3-chloro-phenyl]-5-(2,3-difluoro-4-methoxy-phenyl)-1-methyl-imidazole-2-carboxamide formate]	0.04
Cn1c(-c2ccc(OCF)c(F)c2Cl)cnc1C(=O)Nc1ccc(C(=O)N2CCN(C(=O)C[C@@H]3CCNC3)CC2)c(Cl)c1 [Example 146, 5-[2-chloro-3-fluoro-4-(fluoromethoxy)phenyl]-N-[3-chloro-4-[4-[2-[(3S)-pyrrolidin-3-yl]acetyl]piperazine-1-carbonyl]phenyl]-1-methyl-imidazole-2-carboxamide formate]	0.04
Cn1c(-c2ccc(OC(F)F)c(F)c2Cl)cnc1C(=O)Nc1ccc(C(=O)N2CCN(C(=O)C[C@@H]3CCNC3)CC2)c(Cl)c1 [Example 147, 5-[2-chloro-4-(difluoromethoxy)-3-fluoro-phenyl]-N-[3-chloro-4-[4-[2-[(3S)-pyrrolidin-3-yl]acetyl]piperazine-1-carbonyl]phenyl]-1-methyl-imidazole-2-carboxamide formate]	0.04
Cn1c(-c2ccc(OCF)c(F)c2F)cnc1C(=O)Nc1ccc(C(=O)N2CCN(C(=O)C3CNCC3O)CC2)c(Cl)c1 (stereo not shown) [Example 148, N-[3-chloro-4-[4-(4-hydroxypyrrolidine-3-carbonyl)piperazine-1-carbonyl]phenyl]-5-[2,3-difluoro-4-(fluoromethoxy)phenyl]-1-methyl-imidazole-2-carboxamide formate]	0.04
COc1ccc(-c2cnc(C(=O)Nc3ccc(C(=O)N4CCN(C(=O)CN)CC4)c(Cl)c3)n2C)c(F)c1F [Example 149, N-[4-[4-(2-aminoacetyl)piperazine-1-carbonyl]-3-chloro-phenyl]-5-(2,3-difluoro-4 methoxy-phenyl)-1-methyl-imidazole-2-carboxamide formate]	0.03
COc1ccc(-c2cnc(C(=O)Nc3ccc(C(=O)N4CCN(C(=O)[C@@H]5CCN5)CC4)c(Cl)c3)n2C)c(F)c1F [Example 150, N-[4-[4-[(2S)-azetidine-2-carbonyl]piperazine-1-carbonyl]-3-chloro-phenyl]-5-(2,3-difluoro-4-methoxy-phenyl)-1-methyl-imidazole-2-carboxamide formate]	0.08
COc1ccc(-c2cnc(C(=O)Nc3ccc(C(=O)N4CCN(C(=O)CC5CCNC5)CC4)c(Cl)c3)n2C)c(F)c1F (stereo not shown) [Example 151, N-[3-chloro-4-[4-(2-pyrrolidin-3-ylacetyl)piperazine-1-carbonyl]phenyl]-5-(2,3-difluoro-4-methoxy-phenyl)-1-methyl-imidazole-2-carboxamide formate]	0.04
COc1ccc(-c2cnc(C(=O)Nc3ccc(C(=O)N4CCN(C(=O)C[C@H]5CCCN5)CC4)c(Cl)c3)n2C)c(F)c1F [Example 152, N-[3-chloro-4-[4-[2-[(2R)-pyrrolidin-2-yl]acetyl]piperazine-1-carbonyl]phenyl]-5-(2,3-difluoro-4-methoxy-phenyl)-1-methyl-imidazole-2-carboxamide formate]	0.05
COc1ccc(-c2cnc(C(=O)Nc3ccc(C(=O)N4CCN(C(=O)C[C@H]5CCNC5)CC4)c(Cl)c3)n2C)c(F)c1F [Example 153, N-[3-chloro-4-[4-[2-[(3R)-pyrrolidin-3-yl]acetyl]piperazine-1-carbonyl]phenyl]-5-(2,3-difluoro-4-methoxy-phenyl)-1-methyl-imidazole-2-carboxamide formate]	0.06
COc1ccc(-c2cnc(C(=O)Nc3ccc(C(=O)N4CCN(C(=O)C[C@@H]5CCCN5)CC4)c(Cl)c3)n2C)c(F)c1F [Example 154, N-[3-chloro-4-[4-[2-[(2S)-pyrrolidin-2-yl]acetyl]piperazine-1-carbonyl]phenyl]-5-(2,3-difluoro-4-methoxy-phenyl)-1-methyl-imidazole-2-carboxamide formate]	0.07
Cn1c(-c2ccc(OCF)c(F)c2F)cnc1C(=O)Nc1ccc(C(=O)N2CCN(C(=O)[C@@H]3CCNC3)CC2)c(Cl)c1 [Example 155, N-[3-chloro-4-[4-[(3R)-pyrrolidine-3-carbonyl]piperazine-1-carbonyl]phenyl]-5-[2,3-difluoro-4-(fluoromethoxy)phenyl]-1-methyl-imidazole-2-carboxamide formate]	0.04
CN(C)CC(=O)N1CCN(C(=O)c2ccc(NC(=O)c3ncc(-c4ccc(OC(F)F)c(F)c4F)n3C)cc2Cl)CC1 [Example 156, N-[3-chloro-4-[4-[2-(dimethylamino)acetyl]piperazine-1-carbonyl]phenyl]-5-[4-(difluoromethoxy)-2,3-difluoro-phenyl]-1-methyl-imidazole-2-carboxamide formate]	0.03
Cn1c(-c2ccc(OCF)c(F)c2F)cnc1C(=O)Nc1ccc(C(=O)N2CCN(C(=O)C[C@@H]3CCCN3)CC2)c(Cl)c1 [Example 157, N-[3-chloro-4-[4-[2-[(2S)-pyrrolidin-2-yl]acetyl]piperazine-1-carbonyl]phenyl]-5-[2,3-difluoro-4-(fluoromethoxy)phenyl]-1-methyl-imidazole-2-carboxamide formate]	0.03
Cn1c(-c2ccc(OCF)c(F)c2F)cnc1C(=O)Nc1ccc(C(=O)N2CCN(C(=O)C[C@@H]3CCNC3)CC2)c(Cl)c1 [Example 158, N-[3-chloro-4-[4-[2-[(3S)-pyrrolidin-3-yl]acetyl]piperazine-1-carbonyl]phenyl]-5-[2,3-difluoro-4-(fluoromethoxy)phenyl]-1-methyl-imidazole-2-carboxamide formate]	0.04
Cn1c(-c2ccc(OC(F)F)cc2F)cnc1C(=O)Nc1ccc(C(=O)N2CCN(C(=O)C[C@@H]3CCCN3)CC2)c(Cl)c1 [Example 159, N-[3-chloro-4-[4-[2-[(2S)-pyrrolidin-2-yl]acetyl]piperazine-1-carbonyl]phenyl]-5-[4-(difluoromethoxy)-2-fluoro-phenyl]-1-methyl-imidazole-2-carboxamide formate]	0.07
Cn1c(-c2ccc(OCF)c(F)c2F)cnc1C(=O)Nc1ccc(C(=O)N2CCN(C(=O)CC3(O)CNC3)CC2)c(Cl)c1 [Example 160, N-[3-chloro-4-[4-[2-(3-hydroxyazetidin-3-yl)acetyl]piperazine-1-carbonyl]phenyl]-5-[2,3-difluoro-4-(fluoromethoxy)phenyl]-1-methyl-imidazole-2-carboxamide formate]	0.04
COc1ccc(-c2cnc(C(=O)Nc3ccc(C(=O)N4CCN(C(=O)CC5(O)CCNCC5)CC4)c(Cl)c3)n2C)c(F)c1F [Example 161, N-[3-chloro-4-[4-[2-(4-hydroxy-4-piperidyl)acetyl]piperazine-1-carbonyl]phenyl]-5-(2,3-difluoro-4-methoxy-phenyl)-1-methyl-imidazole-2-carboxamide formate]	0.03
Cn1c(-c2ccc(OCF)c(F)c2F)cnc1C(=O)Nc1ccc(C(=O)N2CCN(C(=O)C3(O)CCNCC3)CC2)c(Cl)c1 [Example 162, N-[3-chloro-4-[4-(4-hydroxypiperidine-4-carbonyl)piperazine-1-carbonyl]phenyl]-5-[2,3-difluoro-4-(fluoromethoxy)phenyl]-1-methyl-imidazole-2-carboxamide formate]	0.03
